Laboratory results reported in patent publication US8609680B2, “2,3-dihydro-1H-inden-1-yl-2,7-diazaspiro[3.5] nonane derivatives” (Pfizer Inc., priority 2010, dated 2013).
Like-named read-outs stand apart in the source and are kept apart here.

Columns and labels:
human GHSR1a [1] = molecular target: T1, human GHSR1a (Homo sapiens, UniProt Q92847); test: Human Ghrelin SPA Binding Assay
T1 construct: expressed in transfected cells; host or cells: HEK293 Tetracycline-Inducible cell line, used as membranes
T1 sequence (Q92847 whole entry): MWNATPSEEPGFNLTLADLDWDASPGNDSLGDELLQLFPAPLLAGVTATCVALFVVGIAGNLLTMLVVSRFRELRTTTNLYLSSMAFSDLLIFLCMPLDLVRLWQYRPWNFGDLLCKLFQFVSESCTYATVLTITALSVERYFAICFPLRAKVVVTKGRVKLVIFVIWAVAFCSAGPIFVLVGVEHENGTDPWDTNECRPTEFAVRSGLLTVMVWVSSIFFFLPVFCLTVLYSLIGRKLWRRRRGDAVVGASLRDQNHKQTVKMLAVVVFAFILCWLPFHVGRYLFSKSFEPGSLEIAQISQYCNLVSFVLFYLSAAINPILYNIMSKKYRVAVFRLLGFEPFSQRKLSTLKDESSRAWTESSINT
Text: The SPA format was utilized for high throughput screening of test compounds and filter binding served for more comprehensive binding characterization.
Human Ghrelin SPA Binding Assay

human GHSR1a [2] = molecular target: T1, human GHSR1a; test: Human Ghrelin Functional Assay (DELFIA GTP-binding assay); type: biochemical; conditions: GTP-Europium exchange, human GHSR1a membranes, with and without ghrelin at EC80
Description: Human Ghrelin Functional Assay
To measure the ability of test compounds in the present invention to modulate the activity of human GHSR1a (agonize, antagonize, partially agonize, inversely agonize), a DELFIA GTP-binding assay (Perkin Elmer, AD0260 and AD0261) is performed. The assay monitors the ligand-dependent exchange of GDP for GTP. GPCR activation results in an increase in fluorescence as receptor-bound GDP is replaced by Europium-labeled GTP.
Ghrelin functional assays are performed in a final volume of 39.5 μl containing 720 ng human GHSR1a (HEK293 Tetracycline-Inducible cell line expressing the human growth secretagogue receptor la, prepared as membranes), 9 nM GTP-Europium and varying concentrations of test compound or vehicle. To test for receptor antagonism, membranes are incubated in the presence of agonist ghrelin (Anaspec, 24158) at the EC80 concentration, plus test compound or vehicle.
Briefly, test compounds are prepared at room temperature in 384-well plates (Matrix, 4340). […] Samples are then transferred as 6 μl to 384-well filter plates (Pall, 5071) containing 30 μl of 24 μg/ml hGHSR1a membrane and 0.35 mg/ml saponin (Perkin Elmer, AD0261) in basal buffer.
The mixture is incubated 24 minutes at room temperature with gentle shaking, followed by the addition of 3.5 μl of 100 nM GTP-Europium in 50 mM HEPES, pH 7.4. Samples are shielded from light and incubated for 90 minutes further at room temperature with gentle shaking. The reactions are suctioned dry with vacuum, washed three times with 75 μl ice cold 1× GTP Wash Solution (Perkin Elmer, AD0261), and immediately read on the Envision 2101 Multilabel Reader (Perkin Elmer) using excitation filter 320 nm and emission filter 615 nm.

Structure (SMILES): Cc1ccn2cc(CC(=O)N3CCC4(CC3)CN([C@@H]3CCc5cc(-n6nccn6)ccc53)C4)nc2c1 [Example 6C]
- IC50 (human GHSR1a [1]): 37.2 nM
- Ki (human GHSR1a [1]): 32.4 nM
- functional comment (human GHSR1a [2]): inverse agonist

Structure (SMILES): COc1ccc(CC(=O)N2CCC3(CC2)CN([C@@H]2CCc4cc(-n5nccn5)ccc42)C3)nc1 [Example 6D]
- IC50 (human GHSR1a [1]): 3.44 nM
- Ki (human GHSR1a [1]; SPA format, [125I] ghrelin displacement, human GHSR1a membranes, Ki=IC50/(1+[ligand]/Kd)): 3.32 nM
- functional comment (human GHSR1a [2]): inverse agonist

Structure (SMILES): COc1ccc(CC(=O)N2CCC3(CC2)CN([C@@H]2CCc4cc(-n5nccn5)ccc42)C3)cc1 [Example 6E]
- IC50 (human GHSR1a [1]): 3.77 nM
- Ki (human GHSR1a [1]): 3.09 nM
- functional comment (human GHSR1a [2]): inverse agonist

Structure (SMILES): Cc1cn2cc(CC(=O)N3CCC4(CC3)CN([C@@H]3CCc5cc(-n6nccn6)ccc53)C4)nc2s1 [Example 6F]
- IC50 (human GHSR1a [1]): 6.08 nM
- Ki (human GHSR1a [1]): 5.18 nM
- functional comment (human GHSR1a [2]): inverse agonist

Structure (SMILES): COc1ccc(CC(=O)N2CCC3(CC2)CN([C@@H]2CCc4cc(-n5nccn5)ccc42)C3)c(NC(C)=O)c1 [Example 6H]
- IC50 (human GHSR1a [1]): 21.7 nM
- Ki (human GHSR1a [1]): 19.4 nM
- functional comment (human GHSR1a [2]): inverse agonist

Structure (SMILES): Cc1ccn2cc(CC(=O)N3CCC4(CC3)CN([C@@H]3CCc5cc(-c6ccc(C(N)=O)nc6)ccc53)C4)nc2c1 [Example 9F]
- IC50 (human GHSR1a [1]): 22.8 nM
- Ki (human GHSR1a [1]): 20.2 nM
- functional comment (human GHSR1a [2]): inverse agonist

Structure (SMILES): NC(=O)c1ccc(-c2ccc3c(c2)CC[C@H]3N2CC3(CCN(C(=O)Cc4ccc(C5CC5)cn4)CC3)C2)cn1 [Example 10E]
- IC50 (human GHSR1a [1]): 9.98 nM
- Ki (human GHSR1a [1]): 8.86 nM
- functional comment (human GHSR1a [2]): inverse agonist

Structure (SMILES): Cc1nn2cc(CC(=O)N3CCC4(CC3)CN([C@@H]3CCc5cc(-c6ccc(C(N)=O)nc6)ccc53)C4)nc2s1 [Example 10F]
- IC50 (human GHSR1a [1]): 15.8 nM
- Ki (human GHSR1a [1]): 14.2 nM
- functional comment (human GHSR1a [2]): inverse agonist

Structure (SMILES): Cc1ccn2cc(CC(=O)N3CCC4(CC3)CN([C@@H]3CCc5cc(-c6cc(C(N)=O)ncn6)ccc53)C4)nc2c1 [Example 10G]
- IC50 (human GHSR1a [1]): 60.1 nM
- Ki (human GHSR1a [1]): 53.8 nM
- functional comment (human GHSR1a [2]): inverse agonist
